Results as given in patent US11999727B2 (Tango Therapeutics, Inc., priority 2020, dated 2024).
pIC50: −log10 of the molar value. Where two headings read alike, the source gives them in different places.

Legend:
PRMT5 [1] = target: T1, PRMT5 (Homo sapiens, UniProt O14744); assay: PRMT5 biochemical IC50 assay with SAM as cofactor; conditions: PRMT5, SAM as cofactor; read-out: SAM IC50
T1 construct: purchased Viva (custom protein)

PRMT5 [2] = target: T1, PRMT5; assay: PRMT5 biochemical IC50 assay with no cofactor; conditions: PRMT5, no cofactor
From the text: Table 1 indicates IC50 values (μM) against PRMT5 for exemplary compounds in the presence of SAM as cofactor, with no cofactor, and with MTA as cofactor, respectively (columns 4-6). […] Ki values can be calculated from the IC50 values as described in the Examples section. As detailed in the Examples section, for the assay performed in the presence of SAM, IC50=Ki×1.5 (Ki=IC50/1.5).

[3] = tested on: HAP1 MTAP-intact cell line; assay: SDMA in-cell western assay, HAP1 MTAP-intact; type: cell-based; conditions: Homo sapiens
Method in brief: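 Compounds were tested in HAP1 cells differing only in MTAP status (endogenous expression versus null). Cellular SDMA levels were then measured by in-cell western, giving an IC50 in each background.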

[4] = tested on: HAP1 MTAP-deleted cell line; assay: SDMA in-cell western assay, HAP1 MTAP-deleted; type: cell-based
From the text: Table 1 also indicates IC50 values in an MTAP-isogenic cell line pair for exemplary compounds in an SDMA in-cell western assay (columns 7-8). HAP1 MTAP-intact is a cell line in which endogenous levels of MTAP are expressed, and HAP1 MTAP-deleted is an MTAP-null cell line.

[5] = tested on: HAP1 MTAP-deleted cell line; assay: Viability assay, MTAP-deleted cell line; type: cell-based; conditions: Homo sapiens, read-out: HAP1 MTAP deleted viability
From the text: Table 1 additionally indicates IC50 values in a viability assay for the MTAP-deleted cell line (column 10), indicating the effect of treatment with compound on cell survival.

PRMT5 [6] = target: T1, PRMT5; assay: PRMT5 biochemical IC50 assay with MTA as cofactor; conditions: PRMT5, MTA as cofactor; read-out: MTA IC50
[7] = read-out: No Cofactor/ rel IC50
[8] = HAP1, SDMA in-cell western, HAP1 MTAP-intact, read-out: MTAP HAP1 intact IC50
[9] = Homo sapiens, HAP1, SDMA in-cell western, HAP1 MTAP-deleted, read-out: HAP 1 MTAP deleted IC50
[10] = IC50 ratio HAP1 MTAP-intact / HAP1 MTAP-deleted, SDMA in-cell western
[11] = HAP1, viability assay, MTAP-deleted cell line
[12] = Homo sapiens, HAP1, SDMA in-cell western, HAP1 MTAP-deleted, read-out: HAP1 MTAP deleted IC50
[13] = HAP1, viability, HAP1 MTAP-deleted cell line

T1 sequence (O14744 whole entry): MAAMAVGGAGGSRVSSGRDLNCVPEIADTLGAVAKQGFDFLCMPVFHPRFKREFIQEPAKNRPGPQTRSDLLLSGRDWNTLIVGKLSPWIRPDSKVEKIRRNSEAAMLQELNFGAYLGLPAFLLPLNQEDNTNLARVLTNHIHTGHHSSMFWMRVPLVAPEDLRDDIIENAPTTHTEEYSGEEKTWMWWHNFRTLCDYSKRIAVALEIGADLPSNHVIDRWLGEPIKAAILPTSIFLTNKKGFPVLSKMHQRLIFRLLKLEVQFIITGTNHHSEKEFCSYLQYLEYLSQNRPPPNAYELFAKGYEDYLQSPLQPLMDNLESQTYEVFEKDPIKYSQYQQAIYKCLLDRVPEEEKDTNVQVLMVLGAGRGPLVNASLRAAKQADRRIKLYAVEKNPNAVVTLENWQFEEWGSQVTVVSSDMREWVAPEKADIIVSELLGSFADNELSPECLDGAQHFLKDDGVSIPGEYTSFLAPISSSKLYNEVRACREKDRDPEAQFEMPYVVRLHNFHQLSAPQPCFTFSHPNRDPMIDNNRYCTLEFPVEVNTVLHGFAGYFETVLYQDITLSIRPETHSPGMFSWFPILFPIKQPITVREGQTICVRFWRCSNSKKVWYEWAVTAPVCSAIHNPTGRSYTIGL
T1 sequence (Q9BQA1 whole entry partner): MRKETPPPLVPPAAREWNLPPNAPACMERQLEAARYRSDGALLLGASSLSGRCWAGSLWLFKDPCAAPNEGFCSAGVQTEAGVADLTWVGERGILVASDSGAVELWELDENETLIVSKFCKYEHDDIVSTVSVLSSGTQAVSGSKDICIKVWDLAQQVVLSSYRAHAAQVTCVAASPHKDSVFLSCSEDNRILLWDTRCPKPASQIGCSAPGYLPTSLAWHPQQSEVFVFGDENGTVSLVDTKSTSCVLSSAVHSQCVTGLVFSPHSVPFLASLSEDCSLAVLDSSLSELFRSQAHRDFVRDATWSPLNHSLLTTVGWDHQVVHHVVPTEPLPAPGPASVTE

Compound	pIC50 (PRMT5 [1])	pIC50 (PRMT5 [2]; [7])	pIC50 [3, 8]	pIC50 [4, 9]	MTAP intact/deleted ratio [4, 10]	pIC50 [5, 11]	pIC50 (PRMT5 [2]; read-out: No Cofactor/rel IC50)	pIC50 (PRMT5 [6])	pIC50 [4, 12]	pIC50 ([4]; SDMA in-cell western, HAP1 MTAP-deleted, read-out: HAP1 MTAP deleted IC50)	pIC50 ([3]; HAP1, read-out: MTAP HAP1 intact IC50)	pIC50 ([4]; Homo sapiens, HAP1, read-out: HAP1 MTAP deleted IC50)	pIC50 ([5]; HAP1, viability IC50, MTAP-deleted cell line)	pIC50 [5, 13]	MTAP intact/deleted ratio ([4]; IC50 ratio HAP1 MTAP-intact vs HAP1 MTAP-deleted, SDMA in-cell western)
Cc1cc(NC(=O)C(=O)N2C[C@H](C)CC[C@@H]2C2CCNC(=O)C2)cnc1N (mixture of isomers) [Compound 159, N-(6-amino-5-methyl-3-pyridyl)-2-[(2S,5S)-5-methyl-2-(2-oxo-4-piperidyl)-1-piperidyl]-2-oxo-acetamide]	6.30 to 7.30	6.30 to 7.30	< 6.00	< 6.00	B (an IC50 ratio greater than or equal to 3 fold but lower than 10 fold)	< 5.00	–	–	–	–	–	–	–	–	–
Cc1cc(NC(=O)C(=O)N2C[C@H](C)CC[C@H]2C2CCCN(C)C2)cnc1N (mixture of isomers) [Compound 832, N-(6-amino-5-methyl-3-pyridyl)-2-[(2R,5S)-5-methyl-2-(1-methyl-3-piperidyl)-1-piperidyl]-2-oxo-acetamide]	< 6.30	–	< 6.00	–	C (an IC50 ratio of less than 3 fold)	–	< 6.30	6.30 to 7.30	< 6.00	–	–	–	–	–	–
Cc1cc(NC(=O)C(=O)N2C[C@H](C)CC[C@H]2c2ccc(NC3COC3)cc2)cnc1N (racemic) [Compound 1048]	6.30 to 7.30	–	6.00 to 7.00	> 7.00	B (an IC50 ratio greater than or equal to 3 fold but lower than 10 fold)	–	6.30 to 7.30	6.30 to 7.30	–	–	–	–	–	–	–
Cc1cc(NC(=O)C(=O)N2C[C@H](C)CC[C@H]2c2ccc(CC(F)(F)F)cc2)cnc1N (racemic) [Compound 1056]	6.30 to 7.30	–	6.00 to 7.00	6.00 to 7.00	C (an IC50 ratio of less than 3 fold)	–	6.30 to 7.30	> 7.30	–	–	–	–	–	–	–
Cc1cncc(NC(=O)C(=O)N2CCCC[C@H]2c2cccc(C)c2)c1 (single isomer, unassigned) [Compound 4]	< 6.30	< 6.30	< 6.00	< 6.00	C (an IC50 ratio of less than 3 fold)	–	–	6.30 to 7.30	–	–	–	–	–	–	–
Cc1cncc(NC(=O)C(=O)N2C[C@@H](C)CC[C@@H]2c2cccc(F)c2)c1 (single isomer, unassigned) [Compound 77]	–	< 6.30	< 6.00	< 6.00	C (an IC50 ratio of less than 3 fold)	< 5.00	–	< 6.30	–	–	–	–	–	–	–
Cc1cc([C@@H]2CC[C@@H](C)CN2C(=O)C(=O)Nc2cncc(C(N)=O)c2)ccc1F (single isomer, unassigned) [Compound 307]	< 6.30	–	< 6.00	–	C (an IC50 ratio of less than 3 fold)	–	< 6.30	< 6.30	< 6.00	–	–	–	–	–	–
COc1ncc(NC(=O)C(=O)N2C[C@H](C)CC[C@H]2c2cccs2)cc1C(N)=O (single isomer, unassigned) [Compound 310]	< 6.30	–	< 6.00	–	C (an IC50 ratio of less than 3 fold)	–	< 6.30	< 6.30	< 6.00	–	–	–	–	–	–
CNc1cccc([C@H]2CCCCN2C(=O)C(=O)Nc2cncc(C(N)=O)c2)c1 (single isomer, unassigned) [Compound 316]	< 6.30	–	< 6.00	–	C (an IC50 ratio of less than 3 fold)	–	< 6.30	6.30 to 7.30	< 6.00	–	–	–	–	–	–
COc1ncc(NC(=O)C(=O)N2CCCCC2C2CCCCC2)cc1C(N)=O (single isomer, unassigned) [Compound 317, 5-(2-(2-cyclohexylpiperidin-1-yl)-2-oxoacetamido)-2-methoxynicotinamide]	< 6.30	–	< 6.00	–	C (an IC50 ratio of less than 3 fold)	–	< 6.30	< 6.30	–	< 6.00	–	–	–	–	–
CNc1cccc([C@H]2CC[C@H](C)CN2C(=O)C(=O)Nc2cncc(C(N)=O)c2)c1 (single isomer, unassigned) [Compound 321]	< 6.30	–	< 6.00	–	C (an IC50 ratio of less than 3 fold)	–	< 6.30	< 6.30	< 6.00	–	–	–	–	–	–
COc1ncc(NC(=O)C(=O)N2C[C@@H](C)CC[C@H]2c2ccccc2)cc1C(N)=O (single isomer, unassigned) [Compound 322]	< 6.30	–	–	–	B (an IC50 ratio greater than or equal to 3 fold but lower than 10 fold)	–	< 6.30	< 6.30	–	–	< 6.00	< 6.00	–	–	–
C[C@@H]1CC[C@@H](c2ccc3c(c2)OCCN3)N(C(=O)C(=O)Nc2cncc(C(N)=O)c2)C1 (single isomer, unassigned) [Compound 605]	< 6.30	–	< 6.00	< 6.00	B (an IC50 ratio greater than or equal to 3 fold but lower than 10 fold)	–	< 6.30	–	–	–	–	–	< 5.00	–	–
CCc1cc(NC(=O)C(=O)N2C[C@@H](C)CC[C@@H]2c2cccc([C@H]3CCCN(C)C3)c2)cnc1N (single isomer, unassigned) [Compound 1285]	6.30 to 7.30	> 7.30	6.00 to 7.00	> 7.00	A (an IC50 ratio greater than or equal to 10 fold)	–	–	–	–	–	–	–	–	> 6.00	–
CCc1cc(NC(=O)C(=O)N2C[C@@H](C)CC[C@@H]2c2cccc(Oc3cccnc3)c2)cnc1N [Compound 1180]	6.30 to 7.30	–	6.00 to 7.00	–	–	> 6.00	–	> 7.30	> 7.00	–	–	–	–	–	A (an IC50 ratio greater than or equal to 10 fold)
COc1ncc(NC(=O)C(=O)N2C[C@@H](C)CC[C@@H]2c2cccc(N3CCN(C)CC3)c2)cc1C(N)=O [Compound 1277, 2-methoxy-5-(2-((2R,5S)-5-methyl-2-(3-(4-methylpiperazin-1-yl)phenyl)piperidin-1-yl)-2-oxoacetamido)nicotinamide]	6.30 to 7.30	–	6.00 to 7.00	> 7.00	A (an IC50 ratio greater than or equal to 10 fold)	–	–	> 7.30	–	–	–	–	–	> 6.00	–
CCc1cc(NC(=O)C(=O)N2C[C@@H](C)CC[C@@H]2c2cccc(Oc3cc(C)nc(C)c3)c2)cnc1N [Compound 1297, N-(6-amino-5-ethylpyridin-3-yl)-2-((2R,5S)-2-(3-((2,6-dimethylpyridin-4-yl)oxy)phenyl)-5-methylpiperidin-1-yl)-2-oxoacetamide]	6.30 to 7.30	–	6.00 to 7.00	> 7.00	–	–	–	> 7.30	–	–	–	–	–	> 6.00	–
CCc1cc(NC(=O)C(=O)N2C[C@@H](C)CC[C@@H]2c2cccc(C(F)(F)CCN(C)C)c2)cnc1N [Compound 1381, N-(6-amino-5-ethylpyridin-3-yl)-2-((2R,5S)-2-(3-(3-(dimethylamino)-1,1-difluoropropyl)phenyl)-5-methylpiperidin-1-yl)-2-oxoacetamide]	> 7.30	–	6.00 to 7.00	> 7.00	A (an IC50 ratio greater than or equal to 10 fold)	–	–	> 7.30	–	–	–	–	–	> 6.00	–
CCc1cc(NC(=O)C(=O)N2C[C@@H](C)CC[C@@H]2c2cccc(OCCCN(C)C)c2)cnc1N [Compound 1384, N-(6-amino-5-ethylpyridin-3-yl)-2-((2R,5S)-2-(3-(3-(dimethylamino)propoxy)phenyl)-5-methylpiperidin-1-yl)-2-oxoacetamide]	6.30 to 7.30	–	> 7.00	> 7.00	A (an IC50 ratio greater than or equal to 10 fold)	–	–	> 7.30	–	–	–	–	–	> 6.00	–
CCc1cc(NC(=O)C(=O)N2C[C@@H](C)CC[C@@H]2c2cccc(CCCN(C)C)c2)cnc1N [Compound 1393, N-(6-amino-5-ethylpyridin-3-yl)-2-((2R,5S)-2-(3-(3-(dimethylamino)propyl)phenyl)-5-methylpiperidin-1-yl)-2-oxoacetamide]	6.30 to 7.30	–	6.00 to 7.00	> 7.00	A (an IC50 ratio greater than or equal to 10 fold)	–	–	> 7.30	–	–	–	–	–	> 6.00	–
